What was measured:
[1] = system: severe headaches secondary to adult hydrocephalus and multiple shunt surgeries; assay: Intranasal oxytocin in a patient, pain rating on VAS (0-10); type: in vivo, human
Protocol: (§1) Upon presentation at the clinic, a patient is asked for a pain assessment (0-10 rating on VAS). The VAS is an 11-point numerical pain rating scale wherein 0 equals “no pain” and 10 equals the “worst pain imaginable”. The analgesic agent is self-administered by nasal applicator. Initially, one puff is given in each nostril. After waiting 15 minutes the patient is asked again for a pain rating and any side effects (e.g. sedation) are assessed. If pain is still present, another puff per nostril is self-administered. After another 15 minutes, pain and side-effects are assessed. If pain is still present, two mote puffs of agent are self-administered. After 15 minutes, pain is rated again, and side effects are assessed. If pain is still present, a final two puffs are given. After another 15 minutes and at 15, 30 and 60 minutes after that, pain and side-effects are re-assessed.
The patient's pain had been unrelieved by treatment with triptans, ergotamines, and high-dose opiates. The patient presented with a pain rating of 8 out of 10 as assessed by the procedure described herein. The patient self-administered oxytocin intranasally at a dose of 4 IU in 0.2 ml. […] Pain relief lasted approximately 24 hours, only briefly interrupted by mild head pain that occurred with activity.
This patient returned to the clinic approximately 1 month later. At this appointment the patient rated the pain as an 8 out of 10. Unbeknownst to them, the patient was first given an intranasal administration of normal saline, in approximately the same volume as used for the oxytocin administration (0.2 ml). No analgesic or other effect was reported by the patient. After waiting 30 minutes, the patient was administered 4 IU of oxytocin intranasally as described above. Within 20-25 minutes, the patient reported that the pain was completely gone. […] Pain returned approximately 24 hours after treatment.

Sprague-Dawley rats = assay: Withdrawal latencies after noxious thermal (laser) stimulation to the ears or hindpaws after intranasal administration; type: in vivo, rat; settings: 10 μg intranasal, tested five minutes after final application
Excerpt: Activity of an analgesic agent can be tested in a rat model by studying treatment-induced changes in latencies (times) of withdrawal in response to noxious heating of the skin, typically applying a stimulus to an ear or a hindpaw. Thus, application of coherent or non-coherent (non-laser) radiant heat to the ear or hindpaw will elicit rapid withdrawal movements. […] Transmucosal or transdermal administration of analgesic agents can be tested for regional and/or systemic analgesia. After administration of an analgesic agent an increase in latency to withdrawal time of the ear would indicate regional analgesia. A change in the latency to withdrawal time of the hindpaw would indicate whether there was a systemic analgesic effect, i.e. no change in the latency to withdrawal time indicates no systemic effect, while an increase in latency to withdrawal time would indicate a systemic effect.
Rats are housed in a 12/12-hour light/dark environment and are provided food and water ad libitum. […]
Sprague-Dawley rats (Charles River Laboratories) were lightly anesthetized with urethane and placed with minimal restraint on a heating pad to maintain their body temperature at 37° C. […] Baseline withdrawal latencies were measured by delivering 4 separate stimuli with a resting period of approximately 15 minutes between each stimulus. […] As described above, testing sessions were videotaped and analyzed. […]

“cluster” headache = assay: Intranasal oxytocin in a patient with headache; type: in vivo, human; settings: 16 IU intranasal
Protocol: as §1
A patient was seen reporting having an ongoing strong headache with occasional boring pain on the left side. The pain had lasted for more than 2 weeks and had been diagnosed as a “cluster” headache. The patient was treated with oxytocin administered intranasally at a dose of 16 IU. The patient reported that their headache completely resolved within 15 minutes and relief lasted for 24 hours.

[2] = system: “stress” or tension headache; type: in vivo, human; settings: 4 IU in 0.2 ml intranasal
Protocol: as §1
A patient was seen reporting a “stress” or tension headache for which they rated their head pain as a 5 out of 10 as assessed by the procedure described herein. The patient was treated with oxytocin administered intranasally at a dose of 4 IU in 0.2 ml. Approximately 10-15 minutes after administration, the patient reported that the pain was completely gone. […] The patient reported being pain free for approximately 48 hours.

“hangover” headache = assay: Intranasal oxytocin in a patient, pain rating on VAS (0-10); type: in vivo, human; settings: 24 IU intranasal, baseline 8 out of 10
Protocol: as §1
A patient was seen reporting a “hangover” headache which was rated as an 8 out of 10 as assessed by the procedure described herein. The patient was treated with oxytocin administered intranasally at a dose of 24 IU. The patient reported that the headache completely resolved within 15 minutes.

[3] = system: trigeminal nucleus caudalis wide dynamic range (WDR) neurons; assay: Electrical stimulation-induced responses, single unit extracellular recordings in trigeminal nucleus caudalis; type: in vivo, rat
Protocol: Male Sprague-Dawley rats (Charles River Laboratories) were anesthetized with isoflurane and used in the following experiments. In the anesthetized rats, single unit, extracellular recordings were performed in trigeminal nucleus caudalis while stimulating the ipsilateral facial skin with constant-current bipolar electrical stimulation. Epoxylate-insulated, tungsten microelectrodes (10 MOhm) were used under stereotaxic coordinate control.
Shown are responses (action potentials per 30 stimuli) to repeated stimulation of a rat's face before oxytocin administration (pre-oxytocin). After administration with oxytocin at approximately 0.1 IU, responses were recorded every five minutes for 65 minutes. A second administration of oxytocin at the same dosage was administered at approximately 70 minutes after the first dose. The approximate site of the administration of the electrical stimulation is indicated by the black spot on a map of the rat's face (FIG. 3B).

daily migraine = assay: Intranasal oxytocin in a patient, pain rating on VAS (0-10); type: in vivo, human; settings: 24 IU intranasal, baseline pain rating 4 out of 10
Protocol: as §1
A patient was seen after reporting a daily migraine which they rated as a mild to moderate headache with a pain rating of 4 out of 10 as assessed by the procedure described herein. The patient was treated with oxytocin administered intranasally at a dose of 24 IU. The patient reported that the oxytocin decreased the pain to a rating of 2 out of 10.

[4] = system: single pain sensing nerve cells in the trigeminal ganglion; assay: Trigeminal ganglion nerve impulses in response to noxious laser pulses to the face; type: in vivo, rat; settings: 10 nmoles applied to the nose, post- vs pre-oxytocin
Protocol: Sprague-Dawley rats (Charles River Laboratories) were anesthetized with isofluorane and a platinum electrode was inserted transcranially into the trigeminal ganglion. Nerve impulses (action potential) were recorded from single pain sensing nerve cells in the trigeminal ganglion in response to application of noxious laser pulses to the face of the rats. After recording responses to several identical laser pulses, 10 nmoles of oxytocin was applied to the nose of the rats. Thereafter, identical laser pulses were once again applied and recorded.

[5] = first visit, 4 IU in 0.2 ml intranasal
[6] = first visit, 4 IU intranasal, baseline pain rating 8 out of 10
[7] = approximately 0.1 IU intranasal, first administration
[8] = second dose, same dosage, approximately 70 minutes after the first

## CC[C@H](C)[C@@H]1NC(=O)[C@H](Cc2ccc(O)cc2)NC(=O)[C@@H](N)CSSC[C@@H](C(=O)N2CCC[C@H]2C(=O)N[C@@H](CC(C)C)C(=O)NCC(N)=O)NC(=O)[C@H](CC(N)=O)NC(=O)[C@H](CCC(N)=O)NC1=O [oxytocin, Cys-Tyr-Ile-Gln-Asn-Cys-Pro-Leu-Gly]
[1]; [5]
  sedation: mild sedation
  time for sedation to clear: ≤ 10 min
  time to onset of sedation: ≤ 5 min
[1]; first visit, 4 IU intranasal
  breast tenderness the day after treatment: some breast tenderness
  duration of pain relief: approximately 24 hours
  time for breast tenderness to resolve: ≤ 24 h
[1]; [6]
  headache pain by 15 minutes after administration: significantly reduced
  time until pain completely gone: ≤ 30 min
[1]; second visit about 1 month later, 4 IU intranasal 30 minutes after saline, baseline 8 out of 10
  time until pain completely gone: 20 to 25 min
[1]; second visit, 4 IU intranasal
  breast tenderness the following day: nor was there any breast tenderness
  sedation: no observed sedation
  time until pain returned after treatment: approximately 24 hours
Sprague-Dawley rats; laser to ears
  regional analgesic effect (ear withdrawal latency): achieved a regional analgesic effect in the head region
Sprague-Dawley rats; laser to hindpaws
  systemic analgesic effect (hindpaw withdrawal latency): without a systemic analgesic effect at the hindpaw
“cluster” headache
  duration of relief: 24 h
  time until headache completely resolved: ≤ 15 min
[2]
  duration pain free: approximately 48 hours
[2]; baseline pain 5 out of 10
  time until pain completely gone: 10 to 15 min
“hangover” headache
  time until headache completely resolved: ≤ 15 min
[3]; [7]
  responses (action potentials per 30 stimuli) after first administration: significant reduction in responses
  time of beginning of reduction in responses after first administration: 10 min
  time post treatment until which reduction continued (responses then began to increase): 50 min
[3]; [8]
  responses (action potentials per 30 stimuli) after second administration: significant reduction in responses
  time to reduction in responses after second administration: ≤ 10 min
Daily migraine
  pain rating after treatment: 2 out of 10
[4]
  neuronal response to noxious laser pulses (average nerve impulses per laser pulse): significantly (p<0.05) reduced

Source: patent US8501691B2, “Methods for treatment of headaches by administration of oxytocin” (The Board of Trustees of the Leland Stanford Junior …, priority 2005, dated 2013)
